Data from ChEMBL document CHEMBL4052616, “Isoniazid derivatives and their anti-tubercular activity” (Eur J Med Chem, 2017).
In brackets after ≈: the same amount, converted by molar mass.

Experiments:
Format in all cases: functional
[1] = test system: Mycobacterium tuberculosis; test: Antitubercular activity against Mycobacterium tuberculosis H37Rv after 10 days by tube dilution method; conditions: 240 h
[2] = test system: Mycobacterium tuberculosis; test: Antimycobacterial activity against human sensitive Mycobacterium tuberculosis measured after six weeks
[3] = test system: Mycobacterium tuberculosis; test: Antimycobacterial activity against Bovin sensitive Mycobacterium tuberculosis measured after six weeks
[4] = test system: Mycobacterium tuberculosis; test: Antitubercular activity against Mycobacterium tuberculosis H37Rv
[5] = test system: Mycobacterium tuberculosis; test: Antimycobacterial activity against Mycobacterium tuberculosis H37Rv ATCC 27294 at < 0.1 ug/mL by microplate alamar blue assay
[6] = test system: Mycobacterium tuberculosis; test: Antimycobacterial activity against Mycobacterium tuberculosis H37Rv after 10 to 12 days by serial dilution method
Mycolicibacterium phlei = test: Antimycobacterial activity against Mycobacterium phlei by serial dilution method
[7] = test system: Mycobacterium intracellulare; test: Antimycobacterial activity against Mycobacterium intracellulare by serial dilution method
Mycobacterium avium = test: Antimycobacterial activity against Mycobacterium avium by serial dilution method
[8] = test system: Mycolicibacterium smegmatis; test: Antimycobacterial activity against Mycobacterium smegmatis ATCC 607 by serial dilution method
[9] = test system: Mycolicibacterium fortuitum; test: Antimycobacterial activity against Mycobacterium fortuitum by serial dilution method
Mycobacterium kansasii = test: Antimycobacterial activity against Mycobacterium kansasii by serial dilution method
[10] = test system: Mycobacterium tuberculosis; test: Antimycobacterial activity against Mycobacterium tuberculosis H37Rv by NCCLS method
[11] = test system: Mycobacterium tuberculosis; test: Potency index, ratio of pyrazinamide MIC to compound MIC for Mycobacterium tuberculosis H37Rv
[12] = test system: Mycobacterium tuberculosis; test: Antimycobacterial activity against Mycobacterium tuberculosis H37Rv after 5 days by microplate alamar blue assay; conditions: 120 h
[13] = test system: Mycobacterium tuberculosis; test: Antimycobacterial activity against Mycobacterium tuberculosis H37Rv ATCC 27294 measured after 5 to 8 days
[14] = test system: Mycobacterium tuberculosis; test: Growth inhibition of Mycobacterium tuberculosis H37Rv ATCC 27294 measured after 5 to 8 days
[15] = test system: Mycobacterium tuberculosis; test: Antimycobacterial activity against Mycobacterium tuberculosis clinical isolate 1889 by broth dilution method
[16] = test system: Mycobacterium tuberculosis; test: Antimycobacterial activity against Mycobacterium tuberculosis Academia by serial dilution method
[17] = test system: Mycobacterium tuberculosis; test: Antimycobacterial activity against Mycobacterium tuberculosis infected in C57BL/6 mouse assessed as colony forming units per lung at 25 mg/kg administered via gavage for 2 days measured last post dose (reference value: 6.53 +/- 0.16 log10CFU)
[18] = test system: Mycobacterium tuberculosis; test: Antimycobacterial activity against Mycobacterium tuberculosis clinical isolate 35829 by broth dilution method
[19] = test system: Mycobacterium tuberculosis; test: Antimycobacterial activity against Mycobacterium tuberculosis H37Rv by serial dilution method
[20] = test system: Mycobacterium tuberculosis; test: Antimycobacterial activity against Mycobacterium tuberculosis clinical isolate 303 by broth dilution method

In the case of O=C(NNc1nc(Cl)nc(NNC(=O)c2ccncc2)n1)c1ccncc1, the MIC [1] is reported as 20 µg/mL (≈ 51.8 µM).

O=C(N/N=C1\C(=O)N(Cc2ccccc2)c2ccccc21)c1ccncc1 was tested, and the MIC [2] was 2.7 to 3.5 µg/mL (≈ 7.58 to 9.82 µM) and the MIC [3] was 2.7 to 3.5 µg/mL (≈ 7.58 to 9.82 µM).

In the case of O=C(NN1C(=O)C(Cl)C1c1cc2ccccc2nc1Cl)c1ccncc1 (configuration not stated), the MIC [4] is reported as 12.5 µg/mL.

In the case of C[C@]12CC/C(=N\NC(=O)c3ccncc3)C=C1CC[C@@H]1[C@@H]2CC[C@]2(C)/C(=N/NC(=O)c3ccncc3)CC[C@@H]12, the “inhibition (INH)” value [5] is reported as >95%.

Cc1ccc2nc(Cl)c(C3C(Cl)C(=O)N3NC(=O)c3ccncc3)cc2c1 (configuration not stated) gave an MIC [4] of 12.5 µg/mL.

Work on C[C@]12CC[C@H]3[C@@](CC[C@@H]4[C@]3(C)CCC[C@@]4(C)C(=O)O)(C/C1=N/NC(=O)c1ccncc1)C2 yielded an MIC [6] of 10 to 20 µg/mL (≈ 22.9 to 45.7 µM).

Work on C[C@]12CC[C@@H](O)C[C@@H]1CC[C@@H]1[C@@H]2CC[C@]2(C)/C(=N/NC(=O)c3ccncc3)CC[C@@H]12 yielded an MIC (Mycolicibacterium phlei) of 3.5 to 1000 µg/mL (≈ 8.55 to 2440 µM), an MIC [7] of 3.5 to 1000 µg/mL (≈ 8.55 to 2440 µM) and an MIC (Mycobacterium avium) of 3.5 to 1000 µg/mL (≈ 8.55 to 2440 µM). For the same molecule, the MIC [8] was 3.5 to 1000 µg/mL (≈ 8.55 to 2440 µM), the MIC [9] was 3.5 to 1000 µg/mL (≈ 8.55 to 2440 µM) and the MIC (Mycobacterium kansasii) was 3.5 to 1000 µg/mL (≈ 8.55 to 2440 µM).

Molecule Cc1c(C(=O)NNC(=O)c2ccncc2)nn(-c2ccc(Cl)cc2Cl)c1-c1ccc(Cl)cc1 has an MIC [10] of 12.5 µg/mL (≈ 25 µM) and a Ratio [11] of 2.

In the case of COc1nc2ccc(Cl)cc2cc1C1C(Cl)C(=O)N1NC(=O)c1ccncc1 (configuration not stated), the MIC [4] is reported as 3.12 to 6.25 µg/mL.

For COc1cc(C2SCC(=O)N2NC(=O)c2ccccc2)ccc1O (configuration not stated), the MIC [12] was 0.31 µg/mL (≈ 0.9 µM).

O=C(NNc1nc(Cl)nc(NC(=O)c2cnccn2)n1)c1ccncc1 gave an MIC [1] of 20 µg/mL (≈ 53.8 µM).

CCn1cc(C(=O)O)c(=O)c2cc(F)c(N3CCN(CN4C(=O)/C(=N\NC(=O)c5ccncc5)c5ccccc54)CC3)cc21 was tested, and the MIC [13] was < 6.25 µg/mL and the “growth inhibition (GI)” value [14] was 100%.

C=C1C[C@]23CC[C@@H]4[C@](C)(CCC[C@@]4(C)C(=O)O)[C@H]2CC[C@]1(O[C@@H]1O[C@H](CO)[C@@H](O)[C@H](O)[C@H]1O[C@@H]1O[C@H](CO)[C@@H](O)[C@H](O)[C@H]1O)C3 was tested, and the MIC [6] was 3.75 to 5 µg/mL (≈ 5.83 to 7.78 µM).

With C=C1C[C@]23CC[C@@H]4[C@](C)(CCC[C@@]4(C)C(=O)NNc4cccnc4)[C@H]2CC[C@]1(O[C@@H]1O[C@H](COC(C)=O)[C@@H](OC(C)=O)[C@H](OC(C)=O)[C@H]1O[C@@H]1O[C@H](COC(C)=O)[C@@H](OC(C)=O)[C@H](OC(C)=O)[C@H]1O)C3 the MIC [6] was 10 µg/mL (≈ 10.1 µM).

With C[C@]12CC=CC[C@@H]1CC[C@@H]1[C@@H]2CC[C@]2(C)/C(=N/NC(=O)c3ccncc3)CC[C@@H]12 the “inhibition (INH)” value [5] was >95%.

With COc1ccc(/C=C2\SC(=O)N(CNNC(=O)c3ccncc3)C2=O)cc1 the MIC [4] was 50 to 100 µg/mL.

Work on COc1nc2ccc(C)cc2cc1C1C(Cl)C(=O)N1NC(=O)c1ccncc1 (configuration not stated) yielded an MIC [4] of 3.12 to 6.25 µg/mL.

CC[C@@H](CO)NCCN[C@@H](CC)CO [ETHAMBUTOL] gave an MIC [10] of 3.25 µg/mL (≈ 15.9 µM).

Molecule COc1c(N2CCNC(C)C2)c(F)cc2c(=O)c(C(=O)O)cn(C3CC3)c12 (configuration not stated) [GATIFLOXACIN] has an MIC [4] of 3.12 µg/mL.

Molecule NNC(=O)c1ccncc1 [ISONIAZID] has an MIC [15] of 4 to 8 µg/mL (≈ 29.2 to 58.3 µM), an MIC [2] of 1.4 µg/mL (≈ 10.2 µM) and an MIC [16] of 0.015 to 0.06 µg/mL (≈ 0.109 to 0.438 µM). The MIC [10] was 0.05 µg/mL (≈ 0.365 µM), the MIC [13] was 0.025 to 0.05 µg/mL (≈ 0.182 to 0.365 µM) and the MIC [4] was 1.45 µM. The Activity [17] was 5.34 log10CFU, the MIC [18] was 4 to 8 µg/mL (≈ 29.2 to 58.3 µM) and the MIC [6] was 0.1 µg/mL (≈ 0.729 µM). It also gave an MIC [12] of 0.2 µg/mL (≈ 1.46 µM), an MIC [3] of 1.4 µg/mL (≈ 10.2 µM) and an MIC [19] of 0.015 to 0.06 µg/mL (≈ 0.109 to 0.438 µM). For the same molecule, the MIC [20] was 4 to 8 µg/mL (≈ 29.2 to 58.3 µM) and the “growth inhibition (GI)” value [14] was 95%.

In the case of NC(=O)c1cnccn1 [PYRAZINAMIDE], the MIC [10] is reported as 50 µg/mL (≈ 406 µM) and the MIC [6] is reported as 20 µg/mL (≈ 162 µM).

Work on CO[C@H]1/C=C/O[C@@]2(C)Oc3c(C)c(O)c4c(O)c(c(/C=N/N5CCN(C)CC5)c(O)c4c3C2=O)NC(=O)/C(C)=C\C=C\[C@H](C)[C@H](O)[C@@H](C)[C@@H](O)[C@@H](C)[C@H](OC(C)=O)[C@@H]1C [RIFAMPIN] yielded an MIC [10] of 0.1 µg/mL (≈ 0.122 µM), an MIC [13] of 0.25 µg/mL (≈ 0.304 µM) and an MIC [12] of 1 µg/mL (≈ 1.22 µM). The “growth inhibition (GI)” value [14] was 86%.
